Test results as given in patent publication US20240158446A1, “CYCLIC COMPOUND HAVING SELECTIVE INHIBITORY ACTION ON KRAS OVER HRAS AND NRAS” (CHUGAI SEIYAKU KABUSHIKI KAISHA, priority 2021, published 2024).
Like-named read-outs stand apart in the source and are kept apart here.

Key:
[1] = molecular target: GDP-bound KRAS wild-type protein (Homo sapiens, UniProt P01116); assay: Binding to KRAS by surface plasmon resonance (SPR), Single Cycle Kinetics; settings: SPR, Single Cycle Kinetics, GDP-bound KRAS wild-type protein, read-out: KRAS KD
[2] = molecular target: GDP-bound NRAS wild-type protein (Homo sapiens, UniProt P01111); assay: Binding to NRAS by surface plasmon resonance (SPR), Single Cycle Kinetics; settings: SPR; for NRAS/KRAS (ratio of KD value for NRAS to KD value for KRAS): GDP-bound NRAS wild-type protein vs GDP-bound KRAS wild-type protein
[3] = molecular target: GDP-bound HRAS wild-type protein (Homo sapiens, UniProt P01112); assay: Binding to HRAS by surface plasmon resonance (SPR), Single Cycle Kinetics; settings: SPR; for HRAS/KRAS (ratio of KD value for HRAS to KD value for KRAS): GDP-bound HRAS wild-type protein vs GDP-bound KRAS wild-type protein
[4] = test system: human lung cancer strain NCI-H441;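 further: cell proliferation inhibition after four days measured by CellTiter-Glo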

Chain of GDP-bound KRAS wild-type protein (P01116 whole entry): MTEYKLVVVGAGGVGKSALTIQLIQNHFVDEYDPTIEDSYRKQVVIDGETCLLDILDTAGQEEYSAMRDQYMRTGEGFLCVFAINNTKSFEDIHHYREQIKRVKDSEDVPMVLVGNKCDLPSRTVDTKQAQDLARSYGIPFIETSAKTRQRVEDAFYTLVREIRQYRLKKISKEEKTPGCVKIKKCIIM
Chain of GDP-bound HRAS wild-type protein (P01112 whole entry): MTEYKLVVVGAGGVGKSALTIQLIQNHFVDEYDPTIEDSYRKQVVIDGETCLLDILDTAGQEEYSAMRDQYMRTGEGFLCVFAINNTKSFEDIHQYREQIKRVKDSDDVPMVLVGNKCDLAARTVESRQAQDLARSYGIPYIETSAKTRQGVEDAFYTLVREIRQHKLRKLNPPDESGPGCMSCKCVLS
Chain of GDP-bound NRAS wild-type protein (P01111 whole entry): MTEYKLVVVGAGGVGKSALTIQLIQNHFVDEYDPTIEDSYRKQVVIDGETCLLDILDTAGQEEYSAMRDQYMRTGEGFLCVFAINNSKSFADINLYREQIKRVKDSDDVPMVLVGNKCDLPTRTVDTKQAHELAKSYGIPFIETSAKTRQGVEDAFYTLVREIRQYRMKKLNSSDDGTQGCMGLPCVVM

CCOC[C@H]1C(=O)N[C@@H]([C@@H](C)CC)C(=O)N2CCC[C@H]2C(=O)N(C)[C@H]2C/C=C\CCN(C2=O)[C@@H](Cc2ccc(C)cc2)C(=O)N(C)CC(=O)N[C@@H](CCc2cc(F)c(C(F)(F)F)c(F)c2)C(=O)N2C[C@H](OCC)C[C@H]2C(=O)NC2(CC(C)(C)C2)C(=O)N(C)[C@@H](C2CCCC2)C(=O)N(C)[C@H](C(=O)N(C)CC)CC(=O)N1C [PP2428]
Kd [1]: 0.62 nM
NRAS/KRAS (ratio of KD value for NRAS to KD value for KRAS) [2]: A (a compound having 10 or more and less than 20 is denoted as A)
HRAS/KRAS (ratio of KD value for HRAS to KD value for KRAS) [3]: A (a compound having 10 or more and less than 20 is denoted as A)
IC50 [4]: 4.8 nM

CCO[C@@H]1C[C@H]2C(=O)NC3(CCCC3)C(=O)N(C)[C@@H](C3CCCC3)C(=O)N(C)[C@H](C(=O)N3CCOCC3)CC(=O)N(C)[C@@H](CC)C(=O)N[C@@H]([C@@H](C)CC)C(=O)N(C)CC(=O)N(C)[C@H]3C[C@@H](C)[C@@H](C)CN(C3=O)[C@@H](Cc3ccc(C(F)(F)F)cc3)C(=O)N(C)CC(=O)N[C@@H](CCc3ccc(C(F)(F)F)c(Cl)c3)C(=O)N2C1 [PP1359]
Kd ([1]; 1:1 binding model): 0.068 nM
NRAS/KRAS (ratio of KD value for NRAS to KD value for KRAS) ([2]; KD ratio class): A (a compound having 10 or more and less than 20 is denoted as A)
HRAS/KRAS (ratio of KD value for HRAS to KD value for KRAS) ([3]; KD ratio class): B (a compound having 3 or more and less than 10 is denoted as B)
IC50 [4]: 3.2 nM

CCO[C@@H]1C[C@H]2C(=O)NC3(CCC3)C(=O)N(C)[C@@H](C3CCCC3)C(=O)N(C)[C@H](C(=O)N3CCOCC3)CC(=O)N(C)[C@@H](CC3CCC3)C(=O)N[C@@H]([C@@H](C)CC)C(=O)N(C)CC(=O)N(C)[C@H]3C/C=C\CCN(C3=O)[C@@H](Cc3ccc(C)cc3)C(=O)N(C)CC(=O)N[C@@H](CCc3cc(F)c(C(F)(F)F)c(F)c3)C(=O)N2C1 [PP1424]
Kd ([1]; 1:1 binding model): 0.23 nM
NRAS/KRAS (ratio of KD value for NRAS to KD value for KRAS) ([2]; KD ratio class): A (a compound having 10 or more and less than 20 is denoted as A)
HRAS/KRAS (ratio of KD value for HRAS to KD value for KRAS) ([3]; KD ratio class): A (a compound having 10 or more and less than 20 is denoted as A)
IC50 [4]: 26.3 nM

CCO[C@@H]1C[C@H]2C(=O)NC3(CC(C)(C)C3)C(=O)N(C)[C@@H](C3CCCC3)C(=O)N(C)[C@H](C(=O)N(C)CC)CC(=O)N(C)[C@H]3CCCC/C=C/c4ccc(cc4)C[C@@H](C(=O)N(C)CC(=O)N[C@@H](CCc4cc(F)c(C(F)(F)F)c(F)c4)C(=O)N2C1)N1CC/C=C\C[C@@H](C1=O)N(C)C(=O)CN(C)C(=O)[C@H]([C@@H](C)CC)NC3=O [PP1829]
Kd [1]: 0.033 nM
NRAS/KRAS (KD ratio) ([2]; ratio of KD for GDP-bound NRAS wild-type protein to KD for KRAS): A (a compound having 10 or more and less than 20 is denoted as A)
HRAS/KRAS (KD ratio) ([3]; ratio of KD for GDP-bound HRAS wild-type protein to KD for KRAS): B (a compound having 3 or more and less than 10 is denoted as B)
IC50 [4]: 2.3 nM

CCCO[C@H](C)[C@@H]1NC(=O)[C@H](CC(C)C)N(C)C(=O)C[C@@H](C(=O)N(C)CC)N(C)C(=O)[C@H](C2CCCC2)N(C)C(=O)C2(CC(C)(C)C2)NC(=O)[C@@H]2C[C@H](C)CN2C(=O)[C@H](CCc2cc(F)c(C(F)(F)F)c(F)c2)NC(=O)CN(C)C(=O)[C@H](Cc2ccc(C)cc2)N2CC/C=C\C[C@@H](C2=O)N(C)C(=O)CN(C)C1=O [PP2417]
Kd [1]: 0.3 nM
NRAS/KRAS (ratio of KD value for NRAS to KD value for KRAS) [2]: A (a compound having 10 or more and less than 20 is denoted as A)
HRAS/KRAS (ratio of KD value for HRAS to KD value for KRAS) [3]: A (a compound having 10 or more and less than 20 is denoted as A)
IC50 [4]: 15.9 nM

CCO[C@@H]1C[C@H]2C(=O)NC3(CCC3)C(=O)N(C)[C@@H](C3CCCC3)C(=O)N(C)[C@H](C(=O)N3CCCC3)CC(=O)N(C)[C@@H](CC(F)F)C(=O)N[C@@H]([C@@H](C)CC)C(=O)N(C)CC(=O)N(C)[C@H]3C/C=C\CCN(C3=O)[C@@H](Cc3ccc(C(F)(F)F)cc3)C(=O)N(C)CC(=O)N[C@@H](CCc3cc(F)c(C(F)(F)F)c(F)c3)C(=O)N2C1 [PP1298]
Kd ([1]; 1:1 binding model): 0.13 nM
NRAS/KRAS (ratio of KD value for NRAS to KD value for KRAS) ([2]; KD ratio class): AA (a compound having 20 or more is denoted as AA)
HRAS/KRAS (ratio of KD value for HRAS to KD value for KRAS) ([3]; KD ratio class): A (a compound having 10 or more and less than 20 is denoted as A)
IC50 [4]: 11.4 nM

CCO[C@@H]1C[C@H]2C(=O)NC3(CCC3)C(=O)N(C)[C@@H](C3CCCC3)C(=O)N(C)[C@H](C(=O)N3CCOCC3)CC(=O)N(C)[C@@H](CC(C)C)C(=O)N[C@@H]([C@@H](C)CC)C(=O)N(C)CC(=O)N(C)[C@H]3CCCCCN(C3=O)[C@@H](Cc3ccc4sccc4c3)C(=O)N(C)CC(=O)N[C@@H](CCc3cc(F)c(C(F)(F)F)c(F)c3)C(=O)N2C1 [PP0920]
Kd [1]: 0.29 nM
NRAS/KRAS (ratio of KD value for NRAS to KD value for KRAS) [2]: B (a compound having 3 or more and less than 10 is denoted as B)
HRAS/KRAS (ratio of KD value for HRAS to KD value for KRAS) [3]: B (a compound having 3 or more and less than 10 is denoted as B)
IC50 [4]: 75.5 nM

CCC[C@@H]1C[C@H]2C(=O)NC3(CC(C)(C)C3)C(=O)N(C)[C@@H](C3CCCC3)C(=O)N(C)[C@H](C(=O)N(C)C)CC(=O)N(C)[C@@H](C)C(=O)N[C@@H]([C@@H](C)CC)C(=O)N(C)CC(=O)N(C)[C@H]3C/C=C\CCN(C3=O)[C@@H](Cc3ccc(C(F)(F)F)cc3)C(=O)N(C)CC(=O)N[C@@H](CCc3cc(F)c(C(F)(F)F)c(F)c3)C(=O)N2C1 [PP2273]
Kd [1]: 0.19 nM
NRAS/KRAS (ratio of KD value for NRAS to KD value for KRAS) [2]: AA (a compound having 20 or more is denoted as AA)
HRAS/KRAS (ratio of KD value for HRAS to KD value for KRAS) [3]: A (a compound having 10 or more and less than 20 is denoted as A)
IC50 [4]: 1.6 nM

CCO[C@@H]1C[C@H]2C(=O)NC3(CCC3)C(=O)N(C)[C@@H](C3CCCC3)C(=O)N(C)[C@H](C(=O)N(C)C)CC(=O)N(C)[C@@H](CC3CCCC3)C(=O)N[C@@H]([C@@H](C)CC)C(=O)N(C)CC(=O)N(C)[C@H]3C/C=C\CCN(C3=O)[C@@H](Cc3ccc(C(F)(F)F)cc3)C(=O)N(C)CC(=O)N[C@@H](CCc3ccc(Cl)c(Cl)c3)C(=O)N2C1 [PP1254]
Kd ([1]; 1:1 binding model): 0.2 nM
NRAS/KRAS (ratio of KD value for NRAS to KD value for KRAS) ([2]; KD ratio class): AA (a compound having 20 or more is denoted as AA)
HRAS/KRAS (ratio of KD value for HRAS to KD value for KRAS) ([3]; KD ratio class): A (a compound having 10 or more and less than 20 is denoted as A)
IC50 [4]: 28.3 nM

CCO[C@@H]1C[C@H]2C(=O)NC3(CCC3)C(=O)N(C)[C@@H](C3CCCC3)C(=O)N(C)[C@H](C(=O)N(C)C)CC(=O)N(C)[C@@H](CSC)C(=O)N[C@@H]([C@@H](C)CC)C(=O)N(C)CC(=O)N(C)[C@H]3C/C=C\CCN(C3=O)[C@@H](CC3CCCCC3)C(=O)N(C)CC(=O)N[C@@H](CCc3cc(F)c(C(F)(F)F)c(F)c3)C(=O)N2C1 [PP1463, (2S,8S,12R,14S,20S,23S,27R,30S,36S,38Z)-2-(cyclohexylmethyl)-20-cyclopentyl-8-[2-[3,5-difluoro-4-(trifluoromethyl)phenyl]ethyl]-12-ethoxy-N,N,4,19,22,26,32,35-octamethyl-30-[(1S)-1-methylpropyl]-27-(methylsulfanylmethyl)-3,6,9,15,18,21,25,28,31,34,42-undecaoxo-spiro[1,4,7,10,16,19,22,26,29,32,35-undecazatricyclo[34.5.1.0^10,14]dotetracont-38-ene-17,1′-cyclobutane]-23-carboxamide]
Kd ([1]; 1:1 binding model): 0.13 nM
NRAS/KRAS (ratio of KD value for NRAS to KD value for KRAS) ([2]; KD ratio class): A (a compound having 10 or more and less than 20 is denoted as A)
HRAS/KRAS (ratio of KD value for HRAS to KD value for KRAS) ([3]; KD ratio class): A (a compound having 10 or more and less than 20 is denoted as A)
IC50 [4]: 44.5 nM

CCO[C@@H]1C[C@H]2C(=O)NC3(CCCC3)C(=O)N(C)[C@@H](C3CCCC3)C(=O)N(C)[C@H](C(=O)N(C)C)CC(=O)N(C)[C@@H](CC3CC3)C(=O)N[C@@H]([C@@H](C)CC)C(=O)N(C)CC(=O)N(C)[C@H]3C[C@@H](C)[C@@H](C)CN(C3=O)[C@@H](Cc3ccc(C(F)(F)F)cc3)C(=O)N(C)CC(=O)N[C@@H](CCc3ccc(C(F)(F)F)c(Cl)c3)C(=O)N2C1 [PP1362]
Kd ([1]; 1:1 binding model): 0.037 nM
NRAS/KRAS (ratio of KD value for NRAS to KD value for KRAS) ([2]; KD ratio class): A (a compound having 10 or more and less than 20 is denoted as A)
HRAS/KRAS (ratio of KD value for HRAS to KD value for KRAS) ([3]; KD ratio class): B (a compound having 3 or more and less than 10 is denoted as B)
IC50 [4]: 3.7 nM

CC[C@H](C)[C@@H]1NC(=O)[C@H](CC2CC2)N(C)C(=O)C[C@@H](C(=O)N(C)C)N(C)C(=O)[C@H](C2CCCC2)N(C)C(=O)C2(CCCC2)NC(=O)[C@@H]2CCCN2C(=O)[C@H](CCc2ccc(C(F)(F)F)c(Cl)c2)NC(=O)CN(C)C(=O)[C@H](Cc2ccc(C(F)(F)F)cc2)N2C[C@H](C)CC[C@@H](C2=O)N(C)C(=O)CN(C)C1=O [PP1346]
Kd ([1]; 1:1 binding model): 0.084 nM
NRAS/KRAS (ratio of KD value for NRAS to KD value for KRAS) ([2]; KD ratio class): B (a compound having 3 or more and less than 10 is denoted as B)
HRAS/KRAS (ratio of KD value for HRAS to KD value for KRAS) ([3]; KD ratio class): B (a compound having 3 or more and less than 10 is denoted as B)
IC50 [4]: 7.2 nM
